From patent publication US8282688B2, “Laccase mediators and methods of use” (Danisco US Inc., priority 2006, dated 2012)
Values joined by “and” are separate entries in the source; they are usually repeats but may differ in a detail not shown here. Identical values can stand only once.

Assays:
[1] = tested on: Cerrena unicolor Laccase (recombinant laccase D); test: Laccase bleaching of stonewashed denim legs, effect of temperature, Unimac, recombinant laccase D (Example 9); type: biochemical; conditions: laccase 0.05 g/l/0.4 U/ml, pH 6, 30 minutes
Experimental: (§1) Denim, 12 legs weighing approximately 3 kg, was desized in a Unimac UF 50 washing machine under the following conditions: • Desizing for 15 minutes at 10:1 liquor ratio 50° C. with 0.5 g/l (15 g) of Optisize 160 amylase (Genencor) and 0.5 g/l (15 g) of a non-ionic surfactant (e.g. Rucogen BFA, (Rudolf Chemie) or Ultravon GPN, (Huntsman)) • 2 cold rinses for 5 minutes at 30:1 liquor ratio.
(§2) Following desizing the denim was stonewashed in a Unimac UF 50 washing machine under the following conditions: • Cold rinse for 5 minutes at 10:1 liquor ratio • Stonewashing for 60 minutes at 10:1 liquor ratio 55° C. with 1 kg of pumice stone, citrate buffer (30 g tri-sodium citrate dihydrate and 30 g citric acid monohydrate) and 35 g IndiAge 2XL cellulase (Genencor). • 2 cold rinses for 5 minutes at 30:1 liquor ratio.
(§3) Denim legs were evaluated with a Minolta Chromameter CR 310 in the CIE Lab color space with a D 65 light source. Measurements were done only after laccase treatment. For each denim leg 8 measurements are taken and the result of the 12 legs (96 measurements) was averaged.
Laccase bleaching of stonewashed denim: Denim, 12 legs approximately 3 kg, was desized and stonewashed as described in example 8. After stonewashing a laccase treatment was done in a Unimac UF 50 washing machine according to the following process: • 30 minutes at 10:1 liquor ratio, • pH 6 (21 g monosodium phosphate and 5 g adipic acid, recombinant laccase D) or pH 4.8 (8.6 g monosodium phosphate and 16.8 g of adipic acid, Novoprime Base 268 laccase) • laccase (recombinant laccase D or Novoprime Base 268) • mediator (syringamide (SA) and syringonitrile (SN)) • After laccase treatment the denim use rinsed twice in cold water for 5 minutes at 30:1 liquor ratio.

recombinant laccase D = test: Denim swatch bleaching, laccase and mediator concentration, Launder-O-meter (Example 10); type: biochemical, Cerrena unicolor; design: key: TCD = √(ΔL²+Δa²+Δb²) in CIE Lab, before vs after treatment; conditions: 60° C., pH 6
Experimental: Laccase enzyme, derived from Cerrena unicolor (Example 7, 8570 U/ml, 4 mg protein/ml) was used in the experiments.
The enzyme incubations were done in an ATLAS LP 2 Launder-O-meter at different conditions in relation to pH, temperature, enzyme concentration and mediator concentration.
Reactions were carried out in 500 ml stainless steel reaction vessels containing 100 ml of liquid. To each vessel five (7×7 cm) stonewashed denim swatches (ACG denim style 80270) and 6 steel balls of 6 mm diameter were added. The reactions vessels were closed and entered into the launder-O-meter that was pre-heated to the desired temperature. The incubation was carried out for 30 minutes after which the swatches were washed with ‘running’ tap water, spin dried in an AEG IPX4 centrifuge and dried with an Elna Press Electronic iron at program cotton and evaluated.
The color of the five denim swatches is measured with a Minolta Chromameter CR 310 in the CIE Lab color space with a D 65 light source. Measurements were done before and after laccase treatment and the results of the five swatches were averaged. The total color difference (TCD) is calculated. The total color difference can be calculated with the formula: TCD=√(ΔL)^2+(Δa)^2+(Δb)^2.
The effect of laccase and mediator concentration was evaluated running the experiments in the tables below at pH 6 (50 mM monosodium phosphate buffer pH adjusted with sodium hydroxide 4N solution) and a temperature of 60° C.
The experiments were done with syringamide (SA)- and syringonitrile (SN) mediator.
100 ml buffer was added to a beaker with five swatches, 7×7 cm. The total weight 12 g, (denim:liquor ratio=1:8).
The amounts of syringamide or syringonitrile mediator as indicated in the tables below were added to each beaker as a dilution of a 275 mM SA—or—SN stock solution in 98% methanol. The laccase was added to each beaker as indicated in the tables below, as dilution of a 400 units/ml laccase stock solution. The beakers were closed and processed at 60° C. as described in the example 8. The swatches were evaluated as described in example 8.

[2] = tested on: Cerrena unicolor Laccase (recombinant laccase D); test: Laccase bleaching of stonewashed denim legs, laccase dose response, Unimac (Example 11); type: biochemical; conditions: pH 6, 60° C., 30 minutes
Experimental: as §1, §2, §3
Laccase bleaching of stonewashed denim—Denim, 12 legs weighing approximately 3 kg, was desized and stonewashed as described in Example 8. After stonewashing, a laccase treatment was done according to the following process: 30 minutes at 10:1 liquor ratio and pH 6 (21 g monosodium phosphate and 5 g adipic acid) and 60° C. with laccase and mediator. After laccase treatment the denim use rinsed twice in cold water for 5 minutes at 30:1 liquor ratio.

[3] = laccase 10 μl/l, mediator 0.10 mM
[4] = laccase 10 μl/l, mediator 0.55 mM
[5] = laccase 10 μl/l, mediator 1.00 mM
[6] = laccase 33 μl/l, mediator 0.33 mM
[7] = laccase 33 μl/l, mediator 0.78 mM
[8] = laccase 55 μl/l, mediator 0.10 mM
[9] = laccase 55 μl/l, mediator 0.55 mM
[10] = laccase 55 μl/l, mediator 1.00 mM
[11] = laccase 78 μl/l, mediator 0.33 mM
[12] = laccase 78 μl/l, mediator 0.78 mM
[13] = laccase 100 μl/l, mediator 0.10 mM
[14] = laccase 100 μl/l, mediator 0.55 mM
[15] = laccase 100 μl/l, mediator 1.00 mM

Row | SMILES | TCD (total color difference) (recombinant laccase D; [3]) | TCD (total color difference) (recombinant laccase D; [4]) | TCD (total color difference) (recombinant laccase D; [5]) | TCD (total color difference) (recombinant laccase D; [6]) | TCD (total color difference) (recombinant laccase D; [7]) | TCD (total color difference) (recombinant laccase D; [8]) | TCD (total color difference) (recombinant laccase D; [9]) | TCD (total color difference) (recombinant laccase D; [10]) | TCD (total color difference) (recombinant laccase D; [11]) | TCD (total color difference) (recombinant laccase D; [12]) | TCD (total color difference) (recombinant laccase D; [13]) | TCD (total color difference) (recombinant laccase D; [14]) | TCD (total color difference) (recombinant laccase D; [15]) | other results
1 | COc1cc(C(N)=O)cc(OC)c1O [SA, 4-carboxamido-2,6-dimethoxyphenol] | 2.5 | 3.6 | 3.2 | 4.6 | 5.5 | 3.1 | 5.3 and 5.8 | 6.2 | 4.4 | 5.9 | 3.2 and 2.9 | 5.3 | 5.6 and 6.0 | Bleaching level (CIE L) ([1]; mediator 0.33 mM, 40 ° C.): 35.6; Bleaching level (CIE L) ([1]; mediator 0.33 mM, 60 ° C.): 35.6; Bleaching level (CIE L) ([2]; Syringamide 0.33 mM, Cerrena unicolor laccase 0.010 g/l): 34.6; Bleaching level (CIE L) ([2]; Syringamide 0.33 mM, Cerrena unicolor laccase 0.05 g/l): 36.2; Bleaching level (CIE L) ([2]; Syringamide 0.33 mM, Cerrena unicolor laccase 0.25 g/l): 36.2
2 | COc1cc(C#N)cc(OC)c1O [SN, 4-cyano-2,6-dimethoxyphenol] | 2.7 | 3.4 | 3.8 | 4.4 | 5.5 | 3.5 | 6.0 and 6.3 | 7.0 | 5.6 | 7.1 | 4.0 and 4.1 | 7.1 | 7.6 and 8.1 | Bleaching level (CIE L) ([1]; mediator 0.47 mM, 40 ° C.): 35.7; Bleaching level (CIE L) ([1]; mediator 0.47 mM, 60 ° C.): 35.9; Bleaching level (CIE L) ([2]; Syringonitrile 0.39 mM, Cerrena unicolor laccase 0.25 g/l): 37.7; Bleaching level (CIE L) ([2]; Syringonitrile 0.39 mM, Cerrena unicolor laccase 0.4 g/l): 39.5; Bleaching level (CIE L) ([2]; Syringonitrile 0.39 mM, Cerrena unicolor laccase 0.53 g/l): 38.8
